The structures appear in SMILES notation. Read-outs that look alike come from different tables or passages of the source.

Test [1] relates to OVCAR4 cells. Put plainly: Cisplatin dose-response, cell viability by MTT assay. The note with it: for IC50: 24 h, MTT. It is filed as cell-based, human. As for the experimental part:
(§1) A majority of HGSOC patients treated with platinum-based (i.e., carboplatin) chemotherapy develop chemoresistance. […] To test this hypothesis, CBX2 knockdown OVCAR4, PEO1, and OVCAR8 cells were grown in an adherent setting for 24 h and subsequently treated with increasing doses of cisplatin.
CBX2 knockdown OVCAR4, PEO1, and OVCAR8 cells were grown in suspension and dosed with cisplatin. […] Although not as robust as OVCAR4 cells, CBX2knockdown also sensitized OVCAR8 and PEO1 cells to cisplatin (FIG. 7B Panels C-D). […] In addition, we further confirmed that in OVCAR4, loss of CBX2 lead to increased cisplatin-induced apoptosis measured with Annexin V/PI (FIG. 6 Panel C).
(§2) Panels of FIG. 6 are as follows. Panel A: OVCAR4 shControl, shCBX2 #1, and shCBX2 #2 in 96-well plates treated over 24 h with increasing dose of cisplatin (0.5-100 μM). Percent cell viability was measured using the MTT assay and the half maximal inhibitory concentration (IC50) calculated. Panel B: Similarly to (Panel A), OVCAR4 knockdown cell lines were grown in low adherent 96-well plates (forced suspension) and treated with increasing doses of cisplatin over 24 h and percent cell viability measured with MTT for calculation of IC50. Panel C: Annexin/V apoptosis assay of OVCAR4 cells grown in adherent setting with shControl, shCBX2 #1 or #2 treated with cisplatin (10 μM) compared to untreated control. Percent Annexin positive cells are shown. Statistical test=ANOVA. Error bars=S.E.M.
PEO1 and OVCAR4 cells were plated in 96-well plates in both adherent (4000 cells per well) and suspension (6000 cells per well) environments, as described above. These cells were treated over 24 h with increasing concentrations of Cisplatin (0.5-100 μM). 1640 RPMI media and media with 0.9% NaCl were used for control and vehicle control, respectively. Cell viability was assessed using the 3-(4,5-dimethylthiazol-2-yl)-5-(3-carboxymethoxyphenyl)-2-(4-sulfophenyl)-2H-tetrazolium (MTT) assay (Promega, Madison, WI). Means of at least five wells are reported and experiments were independently repeated in triplicate. Representative dose-response curves are shown.
(Formazan colour is commonly taken as a measure of viable cells.)

For a further test, the system named is PEO1 cells. The description is as above. It is filed as cell-based, human. The note with it: 48 hours. As for the experimental part:
as §1
(§3) The panels in FIG. 7A and FIG. 7B are as follows. Panel A: shControl (shCtrl), shCBX2 #1 and #2 OVCAR8 cells grown in adherent were dosed with cisplatin for 24 hours. Treated cells were utilized for a MTT assay to assess cell viability. Panel B: Same as A, but adherent PEO1 cells were dosed with cisplatin for 48 hours. Panel C: Same as A, but OVCAR8 cells in suspension were dosed with cisplatin for 24 hours. Panel D: Same as A, but PEO1 cells in suspension were dosed with cisplatin for 48 hours. IC50 values were calculated with Prism and are indicated.
PEO1 and OVCAR4 cells were plated in 96-well plates in both adherent (4000 cells per well) and suspension (6000 cells per well) environments, as described above. These cells were treated over 24 h with increasing concentrations of Cisplatin (0.5-100 μM). 1640 RPMI media and media with 0.9% NaCl were used for control and vehicle control, respectively. Cell viability was assessed using the 3-(4,5-dimethylthiazol-2-yl)-5-(3-carboxymethoxyphenyl)-2-(4-sulfophenyl)-2H-tetrazolium (MTT) assay (Promega, Madison, WI). […]

A further test has as its system OVCAR8 cells. The test is described as above. In kind it is cell-based, human. As to conditions: 24 hours. On the procedure:
as §3, with “A majority of HGSOC patients treated with platinum-based (i.e., carboplatin) chemotherapy develop chemoresistance. […] To test this hypothesis, CBX2 knockdown OVCAR4, PEO1, and OVCAR8 cells were grown in an adherent setting for 24 h and subsequently treated with increasing doses of cisplatin. […] The” for “The”

The subject of test [2] is OVCAR4 cells. Put plainly: Annexin V/PI apoptosis assay. In kind it is cell-based, human. As to conditions: OVCAR4 adherent, loss of CBX2 (shCBX2 #1 or #2) vs shControl, cisplatin 10 μM. As for the experimental part: as §2
Following 72 h of growth in adherent and suspended states, OVCAR4 and PEO1 cells were harvested and washed in PBS. Alexa Fluor™ 488 Conjugated AnnexinV and Propidium Iodide (PI) (Thermo Fisher Scientific) staining were performed following manufacturer's protocol.

Test [3] concerns OVCAR4 cells. The note with it: cells allowed to recover 72 h following cisplatin treatment; read-out: OVCAR4 cisplatin IC50 reported by Haley et al.; cited from earlier work.

A word on the IC50: it is the midpoint of a concentration-inhibition curve. Turning to `N.N.[Cl][Pt][Cl]` [cisplatin], the “chemosensitivity to cisplatin, shCBX2 cell lines vs shControl cells” value with OVCAR4 cells [1] (OVCAR4, adherent) was “significantly more chemosensitive”; with PEO1 cells (PEO1, adherent), “significantly more chemosensitive”; in the test with OVCAR8 cells (OVCAR8, adherent) it was “significantly more chemosensitive”. The “increase in the cisplatin IC50 in suspension cells compared to the adherent cells” value in the test with OVCAR4 cells [1] (OVCAR4 cells) turned out to be 4.47 fold. The IC50 in the test on OVCAR4 cells [1] (OVCAR4 control with intact CBX2, adherent) is 38.7 µM; in the test on OVCAR4 cells [1] (OVCAR4 control with intact CBX2, suspension), 170 µM; in the test on OVCAR4 cells [1] (OVCAR4 shCBX2 #1 knockdown cells, adherent) it was 12.7 µM; in the test with OVCAR4 cells [1] (OVCAR4 shCBX2 #1 knockdown cells, suspension) it was 7.19 µM; with OVCAR4 cells [1] (OVCAR4 shCBX2 #2 knockdown cells, adherent), 15.4 µM; in the test on OVCAR4 cells [1] (OVCAR4 shCBX2 #2 knockdown cells, suspension), 18.1 µM. The IC50 in the test on OVCAR4 cells [3] is about 6 µM. Moreover, the “sensitivity to cisplatin after CBX2 knockdown” value in the test with PEO1 cells (PEO1, suspension) is “sensitized”; in the test with OVCAR8 cells (OVCAR8, suspension), “sensitized”. Further, in the test on OVCAR4 cells [2], the “cisplatin-induced apoptosis measured with Annexin V/PI” value was “increased”.
